17 compounds from US9376442B2, “Methylpyrrolopyrimidinecarboxamides” (Takeda GmbH, priority 2009, dated 2016) can be followed below.

Experiment [1] deals with T1, PDE5A1 (Homo sapiens, UniProt O76074).
T1 construct: from tissue; host or cells: human platelets from fresh donor blood (10,000 x g supernatant of sonicated lysate)
In words: Inhibition of type 5 phosphodiesterase (PDE5) activity, modified SPA test with human platelet lysate. Type of experiment: biochemical. The note with it: 0.5 μM cGMP, read-out: PDE5A1 inhibitory values [measured as −log IC50 (mol/l)] (converted). In a few lines:
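Scintillation proximity assay with [3H]cGMP tracer at 0.5 μM total cGMP, stopped after 15 min with beads containing IBMX. PDE3 and PDE2 activities suppressed with motapizone (1 μM) and a PDE2 inhibitor (10 nM). Human platelet supernatant served as the enzyme, with compound preincubated 5 min at 37° C; IC50 values from concentration-effect curves.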

Experiment [2] has as its target T2, PDE4B1 (Homo sapiens, UniProt Q07343).
T2 construct: made in house; host or cells: SF21 insect cells (baculovirus; pCRBac vector), 1000 x g supernatant of homogenate
Nature of the experiment: Inhibition of type 4 phosphodiesterase (PDE4) activity, modified SPA test with recombinant PDE4B1 expressed in SF21 insect cells. It is filed as biochemical. The note with it: recombinant PDE4B1, 0.5 μM cAMP, read-out: PDE4B1 inhibitory values [measured as −log IC50 (mol/l)] (converted). In outline:
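Modified [3H]cAMP SPA using 1000×g supernatant of SF21 cells expressing recombinant human PDE4B1, in 20 mM Tris pH 7.4, 0.1 mg/ml BSA, 5 mM Mg2+, 0.5 μM cAMP. After 5 min preincubation at 37 °C, 15 min reaction, stopped with SPA beads plus IBMX; IC50 by non-linear regression.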

T2 sequence (Q07343 whole entry): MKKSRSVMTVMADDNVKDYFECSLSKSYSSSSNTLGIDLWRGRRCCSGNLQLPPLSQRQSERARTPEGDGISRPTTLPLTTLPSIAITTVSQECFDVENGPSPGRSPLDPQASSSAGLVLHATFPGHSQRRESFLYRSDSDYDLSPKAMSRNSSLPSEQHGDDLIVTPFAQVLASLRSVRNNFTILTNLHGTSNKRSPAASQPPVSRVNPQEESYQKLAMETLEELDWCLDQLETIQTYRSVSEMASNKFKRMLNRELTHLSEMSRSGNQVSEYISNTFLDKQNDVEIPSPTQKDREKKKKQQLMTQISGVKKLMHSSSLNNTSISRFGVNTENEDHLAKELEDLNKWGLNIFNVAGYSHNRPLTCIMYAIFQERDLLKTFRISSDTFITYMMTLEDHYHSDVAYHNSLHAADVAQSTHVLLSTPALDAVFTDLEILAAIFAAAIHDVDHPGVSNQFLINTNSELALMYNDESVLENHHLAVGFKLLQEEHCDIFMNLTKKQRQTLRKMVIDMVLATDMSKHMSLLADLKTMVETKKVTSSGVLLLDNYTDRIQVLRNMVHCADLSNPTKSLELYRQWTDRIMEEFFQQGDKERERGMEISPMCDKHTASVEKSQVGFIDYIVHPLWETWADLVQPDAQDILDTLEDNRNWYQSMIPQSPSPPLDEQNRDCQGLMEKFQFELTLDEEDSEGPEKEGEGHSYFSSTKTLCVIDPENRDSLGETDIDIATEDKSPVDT

Regarding `Cc1[nH]c2c(-c3cc(C(F)(F)F)ccc3OCC3CC3)ncnc2c1C(=O)N[C@H]1CC[C@H](NC(=O)CO)CC1` [Example F59, 4-[2-(Cyclopropylmethoxy)-5-(trifluoromethyl)phenyl]-N-{trans-4-[(hydroxyacetyl)amino]cyclohexyl}-6-methyl-5H-pyrrolo[3,2-d]pyrimidine-7-carboxamide], the values for the IC50 in experiment [1] and in experiment [2] were less than 1 nM and less than 100 nM, respectively.

For `COCC(=O)N[C@H]1CC[C@@H](NC(=O)c2c(C)[nH]c3c(-c4cc(C(F)(F)F)ccc4OCC4CC4)ncnc23)CC1` [Example E98, 4-[2-(Cyclopropylmethoxy)-5-(trifluoromethyl)phenyl]-N-{cis-4-[(methoxyacetyl)amino]cyclohexyl}-6-methyl-5H-pyrrolo[3,2-d]pyrimidine-7-carboxamide], the IC50 was less than 1 nM in experiment [1] and less than 100 nM in experiment [2].

Regarding `CCC(=O)N[C@H]1CC[C@@H](NC(=O)c2c(C)[nH]c3c(-c4cc(C(F)(F)F)ccc4OCC4CC4)ncnc23)CC1` [Example E97, 4-[2-(Cyclopropylmethoxy)-5-(trifluoromethyl)phenyl]-6-methyl-N-[cis-4-(propanoylamino)cyclohexyl]-5H-pyrrolo[3,2-d]pyrimidine-7-carboxamide], the results for the IC50 in experiment [1] and in experiment [2] were less than 1 nM and less than 100 nM, respectively.

As to `CC(=O)N1CCC(NC(=O)c2c(C)[nH]c3c(-c4cc(C(F)(F)F)ccc4OCC4CC4)ncnc23)CC1` [Example E90, N-(1-Acetylpiperidin-4-yl)-4-[2-(cyclopropylmethoxy)-5-(trifluoromethyl)phenyl]-6-methyl-5H-pyrrolo[3,2-d]pyrimidine-7-carboxamide], the IC50 in experiment [1] was less than 1 nM; in experiment [2] it was less than 100 nM.

On to `Cc1ccc(OCC2CC2)c(-c2nc(C)nc3c(C(=O)NC4CCN(C(=O)CO)CC4)c(C)[nH]c23)c1` [Example F106, 4-[2-(Cyclopropylmethoxy)-5-methylphenyl]-N-[1-(hydroxyacetyl)piperidin-4-yl]-2,6-dimethyl-5H-pyrrolo[3,2-d]pyrimidine-7-carboxamide], for which the figures for the IC50 in experiment [1] and in experiment [2] were less than 1 nM and 100 to 1000 nM, respectively.

As for `CC(=O)N[C@H]1CC[C@H](NC(=O)c2c(C)[nH]c3c(-c4cc(C)ccc4OCC4CC4)ncnc23)CC1` [Example E84, N-[trans-4-(acetylamino)cyclohexyl]-4-[2-(cyclopropylmethoxy)-5-methylphenyl]-6-methyl-5H-pyrrolo[3,2-d]pyrimidine-7-carboxamide], the IC50 is less than 1 nM in experiment [1] and less than 100 nM in experiment [2].

For the compound `COCC(=O)N[C@@H]1CC[C@@H](NC(=O)c2c(C)[nH]c3c(-c4cc(C(F)F)ccc4OCC4CC4)ncnc23)[C@H](F)C1` (relative stereo) [Example P161, 4-[2-(Cyclopropylmethoxy)-5-(difluoromethyl)phenyl]-N-{(1R*,2R*,4R*)-2-fluoro-4-[(methoxyacetyl)amino]cyclohexyl}-6-methyl-5H-pyrrolo[3,2-d]pyrimidine-7-carboxamide], the figures for the IC50 in experiment [1] and in experiment [2] were less than 1 nM and less than 100 nM, respectively.

For the compound `CCc1ccc(OCC2CC2)c(-c2ncnc3c(C(=O)N[C@H]4CC[C@@H](NC(=O)COC)CC4)c(C)[nH]c23)c1` [Example E153, 4-[2-(Cyclopropylmethoxy)-5-ethylphenyl]-N-{cis-4-[(methoxyacetyl)amino]cyclohexyl}-6-methyl-5H-pyrrolo[3,2-d]pyrimidine-7-carboxamide], the results for the IC50 in experiment [1] and in experiment [2] were less than 1 nM and 100 to 1000 nM, respectively.

In the case of `Cc1ccc(OCC2CC2)c(-c2ncnc3c(C(=O)N[C@H]4CC[C@H](NC(=O)[C@H](C)O)CC4)c(C)[nH]c23)c1` [Example F54, 4-[2-(Cyclopropylmethoxy)-5-methylphenyl]-N-(trans-4-{[(2S)-2-hydroxypropanoyl]amino}cyclohexyl)-6-methyl-5H-pyrrolo[3,2-d]pyrimidine-7-carboxamide], the figures for the IC50 in experiment [1] and in experiment [2] were less than 1 nM and less than 100 nM, respectively.

With `CCC(=O)N[C@H]1CC[C@H](NC(=O)c2c(C)[nH]c3c(-c4cc(CC)ccc4OCC4CC4)ncnc23)CC1` [Example E149, 4-[2-(Cyclopropylmethoxy)-5-ethylphenyl]-6-methyl-N-[trans-4-(propanoylamino)cyclohexyl]-5H-pyrrolo[3,2-d]pyrimidine-7-carboxamide], the IC50 is less than 1 nM in experiment [1] and less than 100 nM in experiment [2].

For the compound `CC(=O)N[C@H]1CC[C@H](NC(=O)c2c(C)[nH]c3c(-c4cc(C(F)F)ccc4OCC4CC4)ncnc23)[C@H](F)C1` (relative stereo) [Example P169, N-[(1S*,2R*,4S*)-4-(Acetylamino)-2-fluorocyclohexyl]-4-[2-(cyclopropylmethoxy)-5-(difluoromethyl)phenyl]-6-methyl-5H-pyrrolo[3,2-d]pyrimidine-7-carboxamide], the IC50 in experiment [1] is less than 1 nM; in experiment [2], less than 100 nM.

Turning to `CCC(=O)N[C@H]1CC[C@H](NC(=O)c2c(C)[nH]c3c(-c4cc(C(F)F)ccc4OCC4CC4)ncnc23)[C@H](F)C1` (relative stereo) [Example P170, 4-[2-(Cyclopropylmethoxy)-5-(difluoromethyl)phenyl]-N-[(1S*,2R*,4S*)-2-fluoro-4-(propanoylamino)cyclohexyl]-6-methyl-5H-pyrrolo[3,2-d]pyrimidine-7-carboxamide], the figures for the IC50 in experiment [1] and in experiment [2] were less than 1 nM and less than 100 nM, respectively.

Turning to `COc1ccc(OCC2CC2)c(-c2ncnc3c(C(=O)N[C@H]4CC[C@@H](NC(=O)CO)CC4)c(C)[nH]c23)c1` [Example F45, 4-[2-(Cyclopropylmethoxy)-5-methoxyphenyl]-N-[cis-4-(glycoloylamino)cyclohexyl]-6-methyl-5H-pyrrolo[3,2-d]pyrimidine-7-carboxamide], the IC50 is less than 1 nM in experiment [1] and 100 to 1000 nM in experiment [2].

Regarding `Cc1ccc(OCC2CC2)c(-c2ncnc3c(C(=O)N[C@H]4CC[C@@H](NC(=O)[C@H](C)O)CC4)c(C)[nH]c23)c1` [Example F56, 4-[2-(Cyclopropylmethoxy)-5-methylphenyl]-N-(cis-4-{[(2S)-2-hydroxypropanoyl]amino}cyclohexyl)-6-methyl-5H-pyrrolo[3,2-d]pyrimidine-7-carboxamide], the IC50 in experiment [1] is less than 1 nM; in experiment [2], less than 100 nM.

Take `CC(=O)N[C@H]1CC[C@H](NC(=O)c2c(C)[nH]c3c(-c4cc(F)ccc4OCC4CC4)ncnc23)CC1` [Example E41, N-(trans-4-acetamidocyclohexyl)-4-[2-(cyclopropylmethoxy)-5-fluorophenyl]-6-methyl-5H-pyrrolo[3,2-d]pyrimidine-7-carboxamide]: the IC50 in experiment [1] is less than 1 nM; in experiment [2] it was less than 100 nM.

As for `CCC(=O)N[C@H]1CC[C@H](NC(=O)c2c(C)[nH]c3c(-c4cc(C(F)F)ccc4OCC4CC4)ncnc23)C[C@@H]1F` (relative stereo) [Example P210, 4-[2-(Cyclopropylmethoxy)-5-(difluoromethyl)phenyl]-N-[(1S*,3S*,4S*)-3-fluoro-4-(propanoylamino)cyclohexyl]-6-methyl-5H-pyrrolo[3,2-d]pyrimidine-7-carboxamide], the IC50 in experiment [1] is less than 1 nM; in experiment [2], less than 100 nM.

As for `CCC(=O)N1C[C@@H](NC(=O)c2c(C)[nH]c3c(-c4cc(C(F)F)ccc4OCC4CC4)ncnc23)C[C@@H]1C` [Example P25, 4-[2-(Cyclopropylmethoxy)-5-(difluoromethyl)phenyl]-6-methyl-N-[(3S,5S)-5-methyl-1-propanoylpyrrolidin-3-yl]-5H-pyrrolo[3,2-d]pyrimidine-7-carboxamide], the IC50 is 1 to 10 nM in experiment [1] and less than 100 nM in experiment [2].
